US8815935B2, “Inhibitors of protein prenyltransferases” (The Regents of the University of California, priority 2008, dated 2014)
“Also recorded” adds a separate entry of the source.

Assays:
[1] = system: H-Ras farnesylation in NIH3T3 cells; test: H-Ras mobility shift immunoblot in NIH3T3 cells; format: cell-based; details: 48 hours
Experimental: K562 cells were treated with modified compounds for 72 hours and then cell number was counted. IC50 values of cell viability relative to the DMSO were measured. […] Data represent the mean+/−S.D. of two measurements from two independent experiments. *, P<0.05 compared with the value for DMSO. […] Whole cell lysates from cells treated with DMSO, P5-H6, P61-A6, GGTI (GGTI-298), FTI (BMS-225975) or RabGGTI (P49-F6) for 48 hours were prepared and processed for immunoblot analysis using antibody against unprenylated form of Rap1 (C: upper panel), Total-Rap1 (C: middle panel), H-Ras (D: upper panel), Rab5b (E: upper panel) or actin (C, D, and E: lower panel). The immunoblots shown represent two independent experiments for each treatment.
This was examined by using a farnesylated protein H-Ras.

[2] = target: GGTase I (K-Ras4B as substrate) (Homo sapiens, UniProt P49354+P53609); test: GGTase I filter-binding assay, K-Ras4B as substrate (library screens); format: biochemical; details: compound 50 μM; DMSO = 100%; smaller = better inhibition; 50 µM
Experimental: (§1) The pilot library was screened for inhibitors of protein geranylgeranyltransferase type I. Protein prenyltransferase assays were carried out by using filter binding. Two different substrates, RhoA and K-Ras4B, were used for the assay. RhoA ends with the CaaL motif and is an exclusive substrate for GGTase I, while K-Ras4B ends with the CaaX motif and is modified by both GGTase I and FTase.
(§2) In the assay, a fixed concentration of 100 μM was used and the results are plotted for the inhibition of RhoA (vertical axis) as well as for K-Ras4B (horizontal axis). […] They are 2,6-diaryl-N-tosyl-1,2,5,6-tetrahydropyridine-3-carboxylic acids, except P2-D5 that is missing an aryl substituent at C2.
The % activity of GGTase I was determined as follows: a working solution that contained each compound in DMSO at the concentration of 1 mM was prepared. The working solution was added to GGTase I reaction mixture so that the final concentration of the compound is 50 μM. GGTase I activity was assayed by incubating [^3H]GGPP with K-Ras4B or RhoA protein in the presence of GGTase I and examining radioactivity incorporated into the substrate protein by spotting onto a filter paper. After washing with TCA, ethanol and acetone, the radioactivity retained on the filter was determined by the use of a scintillation counter. GGTase I activity in the presence of DMSO was taken as a 100% value and the activity in the presence of the compound was shown as percent activity compared with the 100% value. […] For 6-aryl-4-mercapto-N-sulfonyl-piperidine-3-carboxylic acid 11 the 4-mercapto substituent appeared critical to endowing GGTase inhibitory activity. […] 4-Chlorobenzylthio substituent was the next best; 12 compounds out of 21 containing the 4-chlorobenzylthio moiety were active. 4-Benzylthio substituent was also good; 7 piperidines out of 21 bearing 4-benzylthio group were active. […] 19 imines (C15>C12=C41>C40>C01=C11>C05=C10=C30=C35=C37=C38>C02, C03, C04, C06, C39=C43) out of 21 appeared in the GGTIs. […] This corresponds to 47 6-aryl-4-mercapto-N-sulfonyl-piperidine-3-carboxylic acids out of 357 compounds.
A collection of 138 heterocycles was screened for their ability to inhibit the activity of human GGTase-I to geranylgeranylate K-Ras4B or RhoA. Purified GGTase-I was incubated with its substrate protein K-Ras4B or RhoA, [^3H]GGPP, and the 138 compounds. After 30 min, the degree of incorporation of tritiated geranylgeranyl groups was measured using a scintillation counter.

[3] = target: GGTase I (RhoA as substrate) (Homo sapiens, UniProt P49354+P53609); test: GGTase I filter-binding assay, RhoA as substrate (library screens); format: biochemical; details: compound 50 μM, DMSO = 100%, smaller = better inhibition
Experimental: as §1, §2
The % activity of GGTase I was determined as follows: a working solution that contained each compound in DMSO at the concentration of 1 mM was prepared. The working solution was added to GGTase I reaction mixture so that the final concentration of the compound is 50 μM. GGTase I activity was assayed by incubating [^3H]GGPP with K-Ras4B or RhoA protein in the presence of GGTase I and examining radioactivity incorporated into the substrate protein by spotting onto a filter paper. After washing with TCA, ethanol and acetone, the radioactivity retained on the filter was determined by the use of a scintillation counter. GGTase I activity in the presence of DMSO was taken as a 100% value and the activity in the presence of the compound was shown as percent activity compared with the 100% value. […] For 6-aryl-4-mercapto-N-sulfonyl-piperidine-3-carboxylic acid 11 the 4-mercapto substituent appeared critical to endowing GGTase inhibitory activity. […] 4-Chlorobenzylthio substituent was the next best; 12 compounds out of 21 containing the 4-chlorobenzylthio moiety were active. […]
A collection of 138 heterocycles was screened for their ability to inhibit the activity of human GGTase-I to geranylgeranylate K-Ras4B or RhoA. […] After 30 min, the degree of incorporation of tritiated geranylgeranyl groups was measured using a scintillation counter.

[4] = target: T1, GGTase-I (Rattus norvegicus, UniProt P53610+Q04631); test: In vitro GGTase-I enzyme assay (IC50, kinetics); format: biochemical
T1 construct: purchased JENA BIOSCIENCE
Method in brief: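 Rat GGTase-I (50 nM) with 0.5 μM [3H]-GGPP and 2 μM MBP-RhoA in Tris-HCl pH 7.5, MgCl2, ZnCl2, DTT, 2.5% DMSO, 10 min at 30 °C; radiolabel incorporation by TCA filter binding and scintillation. Kinetics: 5 min reactions varying GGPP or RhoA at fixed other components.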

[5] = target: T2, FTase (Rattus norvegicus, UniProt Q02293+Q04631); test: In vitro FTase assay (K-Ras4B substrate, [3H]FPP); format: biochemical; details: concentration increased to 50,000 nM
T2 construct: purchased JENA BIOSCIENCE
Text: To further characterize the pilot library, inhibitors of protein farnesyltransferase were identified. This was accomplished by using K-Ras4B as a substrate protein, tritiated farnesylpyrophosphate ([^3H]FPP) and protein farnesyltransferase. See Finegold, A. A., Johnson, D. I., Farnsworth, C. C., Gelb, M. H., Judd, S. R., Glomset, J. A. and Tamanoi, F. (1991) Protein geranylgeranyltransferase of Saccharomyces cerevisiae is specific for Cys-Xaa-Xaa-Leu motif and requires the CDC43 gene product but not the DPR1 gene product. Proc. Natl. Acad. Sci. USA 88, 4448-4452. […] On the other hand, the structure of the compounds P1-F11, P2-B7 and P2-E9 resemble those of GGTIs. The FTI P1-F11 resembles the GGTI P1-F10, while the FTI P2-B7 resembles the GGTI P2-C10. The FTI P2-E9 is similar to the GGTI P2-G3. Similarity of some GGTI and FTI compounds may point to common structural features between the two closely related enzymes. As described before, FTase and GGTase I have similar three-dimensional structures and a shared alpha subunit. On the other hand, FTase specific inhibitors may recognize a region(s) that is different between the two enzymes.
Examples 2-8 illustrate assays of bioactivity. These methods are applicable to the compounds of the present invention having the particular linkers and scaffolds described herein, to determine their activity. […] Varying concentrations of the two compounds were added to each enzyme reaction. The FTase (protein farnesyltransferase) assay was carried out using K-Ras4B as a substrate protein, FTase (JENA Bioscience, San Diego, Calif.) and [3H]farnesyl pyrophosphate. Incubation was for 30 min at 37° C.
GGTase-I and FTase activities were determined by following the incorporation of radiolabeled isoprenoid [^3H]-geranylgeranyl or [^3H]-farnesyl into substrate proteins. FTase or GGTase-I (50 nM) were used to initiate reactions containing 0.4 μM of [^3H]-FPP or 0.5 μM of [^3H]-GGPP and 2 μM of MBP-tagged substrates (K-Ras4B for FTase; RhoA for GGTase-I) in 20 μl of buffer {50 mM Tris-HCl (pH 7.5), 10 mM MgCl2, […] and 5 mM DTT}. Inhibitors were added at the indicated concentrations. The final DMSO concentration was 2.5% for all samples.
Reactions were carried out for 10 min at 30° C. The reaction mixture was spotted onto a filter paper, treated with 10% trichloroacetic acid (TCA) followed by ethanol and acetone washing. The filter was counted using a scintillation counter. Kinetic assays in which the GGPP concentration was varied employed fixed concentrations of GGTase-I and RhoA, and reactions were carried out for 5 min. Similarly, fixed concentrations of GGTase-I and GGPP were used when the amount of RhoA was varied.

[6] = target: T3, RabGGTase (Rattus norvegicus, UniProt Q08602+Q08603); test: In vitro RabGGTase (GGTase-II) assay with REP-1; format: biochemical; details: up to 10,000 nM
T3 construct: purchased JENA BIOSCIENCE
T3 sequence (Q08602 1-567): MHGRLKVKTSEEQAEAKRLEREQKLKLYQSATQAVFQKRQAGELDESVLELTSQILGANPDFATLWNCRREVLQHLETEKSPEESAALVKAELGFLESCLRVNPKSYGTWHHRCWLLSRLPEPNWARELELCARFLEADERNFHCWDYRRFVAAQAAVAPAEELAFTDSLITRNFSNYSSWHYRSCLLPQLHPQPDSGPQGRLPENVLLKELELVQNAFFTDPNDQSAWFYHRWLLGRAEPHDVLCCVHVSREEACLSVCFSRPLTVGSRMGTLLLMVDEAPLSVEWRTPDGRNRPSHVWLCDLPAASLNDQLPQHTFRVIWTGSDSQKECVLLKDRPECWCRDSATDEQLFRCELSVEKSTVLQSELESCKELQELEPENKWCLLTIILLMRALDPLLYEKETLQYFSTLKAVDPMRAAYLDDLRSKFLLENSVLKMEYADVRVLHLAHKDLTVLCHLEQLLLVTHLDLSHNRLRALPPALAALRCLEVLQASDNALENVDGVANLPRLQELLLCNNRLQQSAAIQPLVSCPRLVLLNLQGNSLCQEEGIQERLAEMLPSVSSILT
T3 sequence (Q08603 1-331): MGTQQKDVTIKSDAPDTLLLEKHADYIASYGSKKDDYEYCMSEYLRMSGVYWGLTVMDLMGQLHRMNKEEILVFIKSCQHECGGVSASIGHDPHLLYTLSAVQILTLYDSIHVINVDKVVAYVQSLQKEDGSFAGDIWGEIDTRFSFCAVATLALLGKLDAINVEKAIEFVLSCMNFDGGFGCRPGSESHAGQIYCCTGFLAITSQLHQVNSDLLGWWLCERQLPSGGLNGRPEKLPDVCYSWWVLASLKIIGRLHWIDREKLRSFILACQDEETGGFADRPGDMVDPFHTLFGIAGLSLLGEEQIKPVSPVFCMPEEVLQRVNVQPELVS
Experimental: The GGTase-I assay was carried out using RhoA as a substrate protein, GGTase-I (JENA Bioscience) and [3H]geranylgeranyl pyrophosphate. Incubation was for 30 min at 37° C. GGTase-II (or RabGGTase) assay was carried out using YPTI as a substrate protein, GGTase-II (Calbiochem, San Diego, Calif.) plus REP1 (Calbiochem) and [3H]geranylgeranyl pyrophosphate. Incubation was for 30 min at 37° C. FIGS. 20D-20F show the three dimensional structure of GGTase I (D), FTsse (E) and GGTase II (F) which can be obtained from X-ray diffraction studies of protein crystals.
For RabGGTase assays, the reaction contained the following components in 20 μl; 0.625 μl of [^3H]-GGPP (0.7 μM), 25 nM RabGGTase, 0.6 μM REP-1, 0.6 μM purified Rab7 or Ypt1 protein, 40 mM HEPES (pH 7.5), 150 mM NaCl, 5 mM DTT, 3 mM MgCl2 and 0.3% CHAPS. Reactions were carried out for 20 min at 37° C. and the products were analyzed as described above for the GGTase-I reaction. Graphing and Michaelis-Menten analysis were performed using Prism version5 (GraphPad, San Diego Calif.).

[7] = system: K562 cells; test: K562 cell growth inhibition; format: cell-based, human; details: 72 hours
Method in brief: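 Human erythroleukemia K562 cells exposed to compound for 72 hours. Cell number measured with CCK-8 and viability expressed relative to the DMSO control.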

[8] = system: Rap1 geranylgeranylation in NIH3T3 cells; test: Unprenylated Rap1 immunoblot in NIH3T3 cells; format: cell-based; details: 48 hours
Experimental: The inhibition of GGTase-I catalyzed protein geranylgeranylation was assessed by examining the accumulation of unprenylated Rap1. To measure the level of unprenylated Rap1, cells were cultured in DMEM plus 10% (v/v) FBS overnight, and then DMSO or appropriate inhibitors were added. Incubation was continued for 48 hours. The cells were harvested and lysed in lysis buffer (20 mM Tris-HCl, pH 7.5, 150 mM NaCl, 1 mM EDTA, 1% NP-40 and 1× Protease Inhibitor Cocktail). Whole cell lysates of NIH3T3 cells were electrophoresed on a 12% SDS-PAGE, transferred to nitrocellulose membranes and immunoblotted with the antibody against unprenylated form of Rap1 (Santa Cruz Biotechnology catalog number sc-1482, goat), total-Rap1 (Santa Cruz: sc-65) or actin (Sigma: A4700). Actin was used as a loading control.

Cn1cncc1CN1C[C@@H](Cc2ccccc2)N(S(=O)(=O)c2cccs2)Cc2cc(C#N)ccc21 [BMS-225975]
mobility shift of H-Ras (protein farnesylation) [1]: slowed the mobility

Cc1ccccc1S(=O)(=O)N1C(c2ccc(Cl)cc2)CC=C(C(=O)O)[C@@H]1c1ccccc1 (some centres unmarked) [drawing 33]
% activity of GGTase I for K-Ras4B in the presence of the compound [2]: 10.6% | % activity of GGTase I for RhoA in the presence of the compound [3]: 8.8%

Cc1ccccc1S(=O)(=O)N1[C@@H](c2ccc(Cl)cc2)C(C(=O)O)=C[C@H]1C(C)(C)C (relative stereo) [P5-H6]
specificity among GGTase-I, FTase and GGTase-II ([4]; FIGS. 20A-20C, varying concentrations): specifically inhibit GGTase I | Ki ([4]; Michaelis-Menten analysis): 0.408 ± 0.032 µM | IC50 ([4]; Tables 5, 14, read-out: In vitro (enzyme assay) IC50, GGTase I): 0.466 µM | mode of GGTase-I inhibition with respect to GGPP ([4]; varying GGPP, fixed RhoA): do not compete with GGPP; also recorded: uncompetitive inhibitors | mode of GGTase-I inhibition with respect to the protein substrate (RhoA) ([4]; varying RhoA, fixed GGPP): compete with a substrate protein; also recorded: competitive inhibitors | inhibition of FTase activity [5]: no significant inhibition | inhibition of RabGGTase [6]: little inhibition | inhibition of proliferation of K562 cells ([7]; FIG. 23): inhibit the growth of the K562 cells | IC50 ([7]; Homo sapiens, K562, FIG. 36A, read-out: IC50, inhibition of proliferation of K562 cells): 20 µM | appearance of the unprenylated (unprocessed) Rap1 band [8]: in a dose dependent manner; also recorded: inhibits Rap1 geranylgeranylation | appearance of the unprenylated Rap1 band at 2.5 μM ([8]; 2.5 μM): not seen
